The source of these data is patent US8716437B2 (priority 2007, dated 2014).

This assay has as its system KcsA-1.3. Description: Phage ELISA on immobilized KcsA-1.3. The assay is classed as binding. As to conditions: in words. The protocol: Panning was performed, in triplicate, on surfaces without a coating (none), and on immobilized KcsA-Kv1.3 receptors (KcsA-Kv1.3), wild-type KcsA receptors (KcsA-WT), and antiserum to sarafotoxin S6b (anti-S6b). The input ligands per well are 10^9, 10^8, 10^7. The ligands included: sarafotoxin S6b (upper panel FIG. 4), kaliotoxin-1 (KTX, middle row FIG. 4), no ligand helper phages (bottom row FIG. 4).
For each binding determination, 3 wells in a NUNC-Immuno MaxiSorp 96-Well plates were coated overnight at 4° C. with 1 ug of KcsA-1.3 or KcsA in 50 ul of 100 mM NaHCO3, 1 mM DDM, pH 9, then washed once with Tris-HC150 mM, NaCl-150 mM pH7.5 containing 0.1% Tween 20, 1 mM DDM (TBST). Wells were then blocked at room temperature with 200 ul of Tris 50 mM NaCl 150 mM pH 7.5, 1 mM DDM, (TBS) containing 0.5% BSA, then washed once with TBST. For each well, 108-1010 phages were added in 50 ul of TBS containing 0.5% BSA and incubated on a rotary shaker at room temperature for 2 hrs. Following five washes with TBST, 50 ul of anti-phage antibody-peroxidase conjugated TBST with 0.5% BSA was added and incubated on a rotary shaker for 2 hours at room temperature, then washed 5 times with TBST and twice with TBS. Fifty (50) ul of 1 step turbo-TMB-ELISA was added and the reaction is stopped by 50 μl of 2M H2SO4 and the absorbancy was read at 450 nm.

As for `CC[C@H](C)[C@H](NC(=O)[C@H](CCC(=O)O)NC(=O)[C@@H](NC(=O)CN)C(C)C)C(=O)N[C@@H](CC(N)=O)C(=O)N[C@H](C(=O)N[C@@H](CCCCN)C(=O)N[C@H]1CSSC[C@@H]2NC(=O)[C@H](CCCCN)NC(=O)CNC(=O)[C@H](Cc3ccccc3)NC(=O)[C@H](CCCNC(=N)N)NC(=O)[C@H](CCSC)NC(=O)CNC(=O)[C@H](C)NC(=O)[C@H](CC(=O)O)NC(=O)[C@H](CCCCN)NC(=O)[C@@H]3CSSC[C@@H](C(=O)N[C@H](C(=O)N4CCC[C@H]4C(=O)N[C@@H](CCCCN)C(=O)O)[C@@H](C)O)NC(=O)[C@H](Cc4c[nH]cn4)NC(=O)[C@H](CSSC[C@H](NC(=O)[C@H](CCC(N)=O)NC(=O)[C@@H]4CCCN4C(=O)[C@H](CO)NC(=O)CNC(=O)[C@H](CO)NC1=O)C(=O)N[C@@H](CC(C)C)C(=O)N[C@@H](CCCCN)C(=O)N1CCC[C@H]1C(=O)N3)NC(=O)[C@H](CCCCN)NC(=O)[C@H](CCCNC(=N)N)NC(=O)[C@H](CC(N)=O)NC(=O)[C@H](CCSC)NC2=O)C(C)C` [KTX, kaliotoxin-1], the “binding of phage to KcsA-1.3 (KcsA-Kv1.3)” value is on record as “specific binding”.
